In US9539218B2, “Prevention and treatment of thromboembolic disorders” (BAYER INTELLECTUAL PROPERTY GMBH, priority 2005, dated 2017):
Like-named read-outs stand apart in the source and are kept apart here.

Key:
[1] = at steady state in humans, healthy male subjects, multiple dose escalation; cited from earlier work
[2] = system: patients undergoing elective primary total hip replacement; conditions: for Primary efficacy, composite endpoint (DVT, PE, death) incidence rate / Primary efficacy, composite endpoint, n of patients with event: 7-9 days
Method: This was a dose guiding study for the direct factor Xa inhibitor (I). Objective of the study was the assessment of safety, tolerability, and efficacy of (I) at different oral doses (bid and od) compared with subcutaneously administered enoxaparin 40 mg in the prevention of venous thromboembolism.
642 patients were enrolled in this study and the treatment duration was 7 to 9 days.
The main inclusion criteria for the study were: men ≧18 years of age and postmenopausal women undergoing elective primary total hip replacement.
This was a prospective, randomized, open-label, active comparator controlled, multi-center and multi-national trial designed as a proof-of-principle dose-escalating study in patients undergoing elective primary total hip replacement.
(I) was administered orally as rapid release tablets.
The criteria for evaluation were: • a) The primary efficacy endpoint was a composite endpoint of • Any deep vein thrombosis (DVT) (proximal and/or distal). • Non-fatal pulmonary embolism (PE). • Death from all causes. • The primary endpoint was evaluated 5-9 days after surgery.

[3] = (I) 2.5 mg bid oral, PP population N = 63
[4] = (I) 5 mg bid oral, PP population N = 63
[5] = (I) 10 mg bid oral, PP population N = 55
[6] = (I) 20 mg bid oral, PP population N = 59
[7] = (I) 30 mg bid oral, PP population N = 46
[8] = (I) 30 mg od oral, PP population N = 73

SMILES: O=C(NC[C@H]1CN(c2ccc(N3CCOCC3=O)cc2)C(=O)O1)c1ccc(Cl)s1 [(I), 5-Chloro-N-({(5S)-2-oxo-3-[4-(3-oxo-4-morpholinyl)-phenyl]-1,3-oxazolidin-5-yl}-methyl)-2-thiophenecarboxamide]
- plasma concentration half life [1]: 4 to 6 h
- DVT rate ([2]; 30 mg (I) once daily for 7 to 9 days, 73 patients undergoing THR surgery): 12.3%
- Prevention of venous thromboembolism (VTE) ([2]; 7-9-day treatment, 2.5 to 30 mg bid, adults undergoing elective hip replacement, compared with enoxaparin): prevented venous thromboembolism (VTE)
- Primary efficacy, composite endpoint (DVT, PE, death) incidence rate [2, 3]: 22.2%
- Primary efficacy, composite endpoint, n of patients with event [2, 3]: 14
- Primary efficacy, composite endpoint (DVT, PE, death) incidence rate [2, 4]: 23.8%
- Primary efficacy, composite endpoint, n of patients with event [2, 4]: 15
- Primary efficacy, composite endpoint (DVT, PE, death) incidence rate [2, 5]: 20.0%
- Primary efficacy, composite endpoint, n of patients with event [2, 5]: 11
- Primary efficacy, composite endpoint (DVT, PE, death) incidence rate [2, 6]: 10.2%
- Primary efficacy, composite endpoint, n of patients with event [2, 6]: 6
- Primary efficacy, composite endpoint (DVT, PE, death) incidence rate [2, 7]: 17.4%
- Primary efficacy, composite endpoint, n of patients with event [2, 7]: 8
- Primary efficacy, composite endpoint (DVT, PE, death) incidence rate [2, 8]: 15.1%
- Primary efficacy, composite endpoint, n of patients with event [2, 8]: 11
